Results from patent publication US20250212873A1, “VOLATILE HDAC INHIBITORS FOR THERAPEUTIC AND PLANT APPLICATIONS” (The Regents of the University of California, priority 2022, published 2025).
Entries after “also recorded” stand apart in the source; their conditions may differ.

Columns and labels:
[1] = test system: Class I and Class II HDACs; assay: In vitro assays with purified human Class I and II HDACs (panel statements); format: biochemical; conditions: 15 mM in 1% DMSO; HDAC 1, 3, 4 and 6
Procedure: Presented are data for selected compounds that act as Histone deacetylase inhibitors in vitro or HDAC inhibitors. 26 compounds were screened against purified human HDACs.
HDAC activity of class I HDACs (HDAC1 and 3) was measured with the fluorometric HDAC Activity Assay kit: HDAC1 (10011563, Cayman Chemical, Ann Arbor, MI) and HDAC3 (50073 BPS Bioscience, San Diego, CA), according to the manufacturer's instructions. HDAC activity of class II HDACs (HDAC4 and HDAC6) was measured with the fluorometric HDAC Activity Assay kit: HDAC4, […] (50064 and 50076, BPS Bioscience, San Diego, CA), according to the manufacturer's instructions. All compounds were tested in single dose duplicate mode at 15 mM concentrations in 1% DMSO, based on the IC50 of 2,3-butanedione established in earlier work. Due to interference, concentrations of >30 mM were not used in the IC50 calculation. To account for any interference at lower concentrations, all baseline measurements of blank wells (no HDAC enzyme) were performed and subtracted with the various concentrations of 2,3-butanedione.
Diacetyl and 3 structurally related VOCs were evaluated using in vitro assay kits for measuring activity of four purified HDACs. Of the four VOCs), each has a different functional group, two are natural in origin, previously detected from microbes that are known to be present in soil (M. C. Lemfack et al., Nucleic Acids Res 46, D1261-D1265 (2018); and R. H. Cagan, W. N. Zeiger, Proc. Nat. Acad. Sci. U.S.A. 75, 4679-4683 (1978)) and two that are not (α-angelica lactone and ethyl pyruvate). […] All 4 VOCs inhibited both Class I HDACs (L. L. Walling, The Myriad Plant Responses to Herbivores. J Plant Growth Regul 19, 195-216 (2000); and M. Heil, R. Karban, Trends Ecol Evol 25, 137-144 (2010)) and the Class II HDAC6 with differences in degree (FIG. 2A,B).

[2] = test system: Arabidopsis thaliana leaflets; assay: RNA-seq of leaflets of Arabidopsis exposed to diacetyl; format: in vivo
Procedure: A. thaliana plants (Col-0) that had been transplanted at day 7 to soil were placed in the experimental room for 2 days to acclimate (23°° C. with a 12-hour light/dark cycle). A single potted plant was placed in a 4-liter clear glass jar, with openings attached to a vacuum to allow for air exchange. A small beaker containing 1 ml of 1% diacetyl in PO or PO alone were placed inside the jar. Plants were watered at 2.5 days. After 5 days, individual leaflets were dissected, and flash frozen in liquid nitrogen. Trizol-based RNA isolation was carried out as above. Two biological replicates were performed for each condition, with an average of 68,355,820 reads/replicate, with an average of 95% mapped. Multiplexed libraries were made from total RNA input using the Illumina TruSeq RNA sample preparation kit (v2) and 50 bps single-end sequencing was done using the NextSeq500.
The HDACs are also important for gene expression in the shoots as well. Young plants in pots were exposed to vapors of diacetyl from a solution of the same concentration as before and performed an RNASeq analyses. 321 genes were differentially regulated in the leaflet of Arabidopsis thaliana following exposure to volatile diacetyl for 5 days (FDR<0.05). These DEGs are distributed across multiple chromosome locations and represent genes of diverse molecular functions (FIG. 27C). […]

[3] = test system: SK-MEL-5 Cancer cell line; assay: Cancer cell viability assay, SK-MEL-5; format: cell-based; conditions: triplicates
Procedure: (§1) Cells were maintained in a 37° C. incubator with 5% CO2 throughout the experiment. Compound stocks were dissolved in 10% DMSO, but final concentrations were made fresh in complete media as needed. 10% DMSO solvent was used as control in complete media. Cells were seeded onto 12-well plates and allowed 12-24 hours until treatment began to allow cells to adhere to wells. This was followed by minimum 5-day treatment of compounds, changing the media with treatment every 48 hours. Cell lines A549, PC3, and SK-MEL-5 were seeded at 8000 cells/well which would provide 80-100% confluency after 6-day growth. SH-SY5Y was seeded at 8000 cells/well then 16,000 cells/well due to slower growth and given at least 10 days for sufficient growth. After allotted growth times, cell counts were performed via Countess™ automated cell counter. All assays were completed with a minimum of triplicate replicates for all conditions and analyzed through GraphPad Prism One-way ANOVA for significance.

PC3 Cancer cell line = assay: Cancer cell viability assay, PC3; format: cell-based
Procedure: as §1

SH-SY5Y Cancer cell line = assay: Cancer cell viability assay, SH-SY5Y; format: cell-based
Procedure: as §1

CC(=O)C(C)=O [2,3-butanedione]
HDAC inhibition against Class I and Class II HDACs [1]: inhibits both class 1 and class 2 HDACs | gene expression in leaflets (RNA-seq) ([2]; volatile exposure): significant changes in gene expression | genes differentially regulated in the leaflet ([2]; volatile exposure 5 days, 1% in PO, FDR<0.05): 321 genes | changes in proliferation, SK-MEL-5 ([3]; 33 uM): No significant changes in proliferations | changes in proliferation, SK-MEL-5 ([3]; 100 uM): No significant changes in proliferations | inhibition of prostate cancer (PC3) cell line, summary (PC3 Cancer cell line): has potential in inhibiting | changes in proliferation, PC3 (PC3 Cancer cell line; 33 uM, triplicates): No Significant changes in proliferations | inhibition of neuroblastoma (SH-SY5Y) cell line, summary (SH-SY5Y Cancer cell line): has potential in inhibiting | changes in proliferation, SH-SY5Y (SH-SY5Y Cancer cell line; 33 micro-molar): significant inhibition of cell growth; also recorded: Significant changes in proliferations | changes in proliferation, SH-SY5Y (SH-SY5Y Cancer cell line; 100 micro-molar): significant inhibition of cell growth; also recorded: Significant changes in proliferations
